Results published in US20090130128A1, “Antiinfective Proanthocyanidin Compounds and Methods of Use Thereof” (priority 2007, published 2009).
Where two headings read alike, the source gives them in different places.

Key:
H5N1 virions = assay type: binding, Influenza A virus (H5N1); details: for relative percent of total binding species: bound to H5N1 after incubation in botanical extract
H1N1 virions = experiment: Viral Direct Binding Assay with DART TOF-MS; design: species or system Influenza A virus (H1N1); details: for relative percent of total binding species: bound to H1N1 after incubation in botanical extract
Rhinovirus particles = assay type: binding
Dengue-2 virus particles = experiment: Viral Direct Binding Assay with DART TOF-MS
HIV-1 virions = assay type: binding
[1] = system: pseudotyped HIV-1 virions; assay type: cell-based; details: GHOST cells, range over clones
[2] = bound to Den-2 after incubation in botanical extract

| Molecule | Aver:Istro Ratio (H5N1 virions; binding ratio Averionol to Istrocyanidin on H5N1) | relative percent of total binding species (H5N1 virions) [%] | Aver:Istro Ratio (H1N1 virions; binding ratio Averionol to Istrocyanidin on H1N1) | relative percent of total binding species (H1N1 virions) [%] | Aver:Istro Ratio (Rhinovirus particles) | relative percent of total binding species (Rhinovirus particles) [%] | Aver:Istro Ratio (Dengue-2 virus particles) | relative percent of total binding species (Dengue-2 virus particles) [%] | Aver:Istro Ratio (HIV-1 virions) | relative percent of total binding species (HIV-1 virions) [%] | relative percent of total binding species (Dengue-2 virus particles; [2]) [%] | IC100 values for HIV-1 infection [1] |
| --- | --- | --- | --- | --- | --- | --- | --- | --- | --- | --- | --- | --- |
| COc1cc(OC)c2c(=O)c(O)c(-c3ccc(OC)c(OC)c3)oc2c1 [Averionol] | 14.0 | 86.9 | 18.9 | 69.8 | 2.3 | 69.5 | 3.7 | 78.5 | 5.9 | 85.6 |  |  |
| Istrocyanidin |  | 6.2 |  | 3.7 |  | 30.5 |  |  |  | 14.4 | 21.2 |  |
| Proanthocyanidin B2 |  |  |  |  |  |  |  |  |  |  |  | never achieved |
| Tristenonol |  | 6.9 |  | 26.6 |  | 0 |  |  |  | 0 | 0 |  |
